Numbered stars: 1 amine (or outer) side, 2 acyl side, 3 side chain; on linkers, the order of the positions; unused ones are H or OH. Square brackets hold non-standard residues; d marks the D form. Peptide text beside a SMILES is read from it. * marks the point of attachment. ξ: configuration not given here. X1 = O=C(O)c1cc(NC(=S)*)ccc1-c1c2ccc(=O)cc-2oc2cc(O)ccc12; N(2-(2-PhOPh)Et)Gly = O=C(O)CNCCc1ccccc1Oc1ccccc1; Gly(N-3,5-(OMe)2-Ph) = COc1cc(NCC(=O)O)cc(OC)c1; X2 = COc1ccc([C@H](C)N(CC(=O)[*:2])[*:1])cc1; Ala(cPent) = N[C@@H](CC1CCCC1)C(=O)O; N((CH2)3OiPr)Gly = CC(C)OCCCNCC(=O)O; Cbz = O=C(OCc1ccccc1)*; ξI = CCC(C)C(N)C(=O)O; βAla = NCCC(=O)O; ξA = CC(N)C(=O)O
What was measured:
[1] = Binding affinity to APC/ASEF (unknown origin) protein protein interaction assessed as dissociation constant by ITC analysis; design: species or system Homo sapiens
[2] = target: Adenomatous polyposis coli protein (Homo sapiens, UniProt P25054); test: Binding affinity to APC (unknown origin) assessed as inhibition constant by ITC analysis
[3] = target: Tumour suppressor protein p53/Mdm4 (Homo sapiens, UniProt O15151+P04637); test: Inhibition of human DMX-p53 protein-protein interaction […]; type: protein assay
Sequence of Tumour suppressor protein p53/Mdm4 (P04637 whole entry): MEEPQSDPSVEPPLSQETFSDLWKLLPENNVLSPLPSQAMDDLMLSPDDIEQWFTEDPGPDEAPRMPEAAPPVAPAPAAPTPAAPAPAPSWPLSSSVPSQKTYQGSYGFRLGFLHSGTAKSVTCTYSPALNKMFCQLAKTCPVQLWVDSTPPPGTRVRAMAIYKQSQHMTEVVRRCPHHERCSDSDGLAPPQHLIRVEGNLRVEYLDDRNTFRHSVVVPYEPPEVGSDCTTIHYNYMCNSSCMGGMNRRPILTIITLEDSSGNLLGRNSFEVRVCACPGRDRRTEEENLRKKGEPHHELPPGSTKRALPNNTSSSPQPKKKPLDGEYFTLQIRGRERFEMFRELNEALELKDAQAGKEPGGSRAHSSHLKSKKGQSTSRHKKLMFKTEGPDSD
Sequence of Tumour suppressor protein p53/Mdm4 (O15151 whole entry): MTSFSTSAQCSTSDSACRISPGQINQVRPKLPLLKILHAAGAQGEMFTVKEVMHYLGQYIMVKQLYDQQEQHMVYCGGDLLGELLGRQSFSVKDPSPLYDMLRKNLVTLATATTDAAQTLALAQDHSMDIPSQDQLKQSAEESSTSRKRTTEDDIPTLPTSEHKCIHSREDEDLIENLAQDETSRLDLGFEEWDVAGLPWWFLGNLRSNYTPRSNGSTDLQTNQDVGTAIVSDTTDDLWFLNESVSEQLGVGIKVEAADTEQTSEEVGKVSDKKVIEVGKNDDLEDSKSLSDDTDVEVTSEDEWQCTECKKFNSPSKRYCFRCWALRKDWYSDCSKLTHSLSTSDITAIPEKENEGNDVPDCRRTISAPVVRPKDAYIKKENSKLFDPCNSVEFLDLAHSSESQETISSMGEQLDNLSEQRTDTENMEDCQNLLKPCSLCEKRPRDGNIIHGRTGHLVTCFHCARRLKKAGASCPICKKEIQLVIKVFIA

[4] = target: Catenin beta-1/Transcription factor 7 (Homo sapiens) (UniProt P36402+P35222); test: Binding affinity to beta-catenin/Tcf (unknown origin) assessed as gibbs free energy change; type: protein assay
[5] = target: Histone-lysine N-methyltransferase 2A (Homo sapiens, UniProt Q03164); test: Competitive binding affinity to full length wild type MLL (unknown origin)
Sequence of Histone-lysine N-methyltransferase 2A (Q03164 1-2718 limits assumed): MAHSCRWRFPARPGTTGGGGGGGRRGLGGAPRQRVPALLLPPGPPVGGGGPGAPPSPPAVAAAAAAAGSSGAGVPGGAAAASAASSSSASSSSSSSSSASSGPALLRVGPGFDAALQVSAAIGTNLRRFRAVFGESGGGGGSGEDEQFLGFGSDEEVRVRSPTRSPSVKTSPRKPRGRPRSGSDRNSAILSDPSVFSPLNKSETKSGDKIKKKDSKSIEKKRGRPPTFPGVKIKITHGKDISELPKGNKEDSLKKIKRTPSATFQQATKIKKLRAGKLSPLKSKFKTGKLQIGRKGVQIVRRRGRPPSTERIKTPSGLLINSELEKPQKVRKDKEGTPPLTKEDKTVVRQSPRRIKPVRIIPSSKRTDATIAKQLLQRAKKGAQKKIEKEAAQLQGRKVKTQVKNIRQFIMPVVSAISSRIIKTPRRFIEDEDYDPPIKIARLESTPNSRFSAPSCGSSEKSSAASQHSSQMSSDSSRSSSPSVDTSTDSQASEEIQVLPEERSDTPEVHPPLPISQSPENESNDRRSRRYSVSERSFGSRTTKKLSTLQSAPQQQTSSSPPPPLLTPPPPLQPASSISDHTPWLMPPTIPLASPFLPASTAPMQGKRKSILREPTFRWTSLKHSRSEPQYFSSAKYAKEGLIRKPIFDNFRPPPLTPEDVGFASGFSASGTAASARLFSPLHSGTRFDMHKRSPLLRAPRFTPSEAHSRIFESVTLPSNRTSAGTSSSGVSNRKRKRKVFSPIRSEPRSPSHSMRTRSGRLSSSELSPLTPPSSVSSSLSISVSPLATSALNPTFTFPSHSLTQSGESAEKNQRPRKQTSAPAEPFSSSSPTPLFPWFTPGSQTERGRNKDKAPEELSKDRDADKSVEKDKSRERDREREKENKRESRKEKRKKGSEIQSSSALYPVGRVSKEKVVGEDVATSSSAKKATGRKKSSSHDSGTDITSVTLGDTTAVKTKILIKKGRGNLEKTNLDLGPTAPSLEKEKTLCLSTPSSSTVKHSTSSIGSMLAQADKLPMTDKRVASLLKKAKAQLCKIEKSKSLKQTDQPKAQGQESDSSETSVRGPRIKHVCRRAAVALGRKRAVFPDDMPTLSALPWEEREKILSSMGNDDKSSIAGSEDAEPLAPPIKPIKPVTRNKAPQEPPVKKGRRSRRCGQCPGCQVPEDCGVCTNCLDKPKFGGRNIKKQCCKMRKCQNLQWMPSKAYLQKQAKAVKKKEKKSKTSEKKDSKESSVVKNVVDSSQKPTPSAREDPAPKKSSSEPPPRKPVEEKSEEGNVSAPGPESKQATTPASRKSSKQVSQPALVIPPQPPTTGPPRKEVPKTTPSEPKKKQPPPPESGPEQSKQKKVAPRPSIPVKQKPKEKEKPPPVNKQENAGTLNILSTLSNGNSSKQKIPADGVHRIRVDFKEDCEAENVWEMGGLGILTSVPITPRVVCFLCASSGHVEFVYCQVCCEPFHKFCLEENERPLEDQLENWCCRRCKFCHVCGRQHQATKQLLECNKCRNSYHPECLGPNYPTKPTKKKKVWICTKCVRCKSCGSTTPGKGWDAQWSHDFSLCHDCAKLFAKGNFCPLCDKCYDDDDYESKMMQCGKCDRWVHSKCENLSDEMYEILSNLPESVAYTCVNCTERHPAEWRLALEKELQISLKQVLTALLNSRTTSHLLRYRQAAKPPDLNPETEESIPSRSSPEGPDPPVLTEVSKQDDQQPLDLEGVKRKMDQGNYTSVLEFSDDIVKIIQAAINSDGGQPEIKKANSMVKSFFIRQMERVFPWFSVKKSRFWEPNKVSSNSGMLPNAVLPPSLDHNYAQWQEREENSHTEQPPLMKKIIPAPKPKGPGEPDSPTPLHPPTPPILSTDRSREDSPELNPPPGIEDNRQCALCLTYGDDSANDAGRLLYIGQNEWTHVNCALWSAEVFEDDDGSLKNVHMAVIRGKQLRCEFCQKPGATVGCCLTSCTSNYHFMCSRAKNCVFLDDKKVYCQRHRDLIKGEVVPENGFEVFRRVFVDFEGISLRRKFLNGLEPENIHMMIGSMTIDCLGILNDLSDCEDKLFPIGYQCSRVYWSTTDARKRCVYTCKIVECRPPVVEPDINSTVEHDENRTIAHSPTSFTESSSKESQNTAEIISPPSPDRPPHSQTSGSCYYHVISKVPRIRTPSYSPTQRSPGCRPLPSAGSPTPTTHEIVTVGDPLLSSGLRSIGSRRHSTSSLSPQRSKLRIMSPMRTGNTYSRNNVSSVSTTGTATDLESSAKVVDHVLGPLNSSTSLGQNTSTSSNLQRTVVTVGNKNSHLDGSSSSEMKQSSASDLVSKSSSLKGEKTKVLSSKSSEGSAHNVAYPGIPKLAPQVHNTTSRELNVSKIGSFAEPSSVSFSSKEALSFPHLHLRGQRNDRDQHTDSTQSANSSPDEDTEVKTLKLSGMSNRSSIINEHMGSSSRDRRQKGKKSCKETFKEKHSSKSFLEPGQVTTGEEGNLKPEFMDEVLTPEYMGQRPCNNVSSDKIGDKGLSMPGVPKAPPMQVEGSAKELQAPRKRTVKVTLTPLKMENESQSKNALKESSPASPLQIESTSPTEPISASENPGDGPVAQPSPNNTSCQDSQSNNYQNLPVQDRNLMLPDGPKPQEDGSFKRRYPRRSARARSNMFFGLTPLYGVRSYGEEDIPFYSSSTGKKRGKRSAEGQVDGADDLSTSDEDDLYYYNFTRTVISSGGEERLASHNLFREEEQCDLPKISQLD
Sequence of Histone-lysine N-methyltransferase 2A (Q03164 2719-3969 limits assumed): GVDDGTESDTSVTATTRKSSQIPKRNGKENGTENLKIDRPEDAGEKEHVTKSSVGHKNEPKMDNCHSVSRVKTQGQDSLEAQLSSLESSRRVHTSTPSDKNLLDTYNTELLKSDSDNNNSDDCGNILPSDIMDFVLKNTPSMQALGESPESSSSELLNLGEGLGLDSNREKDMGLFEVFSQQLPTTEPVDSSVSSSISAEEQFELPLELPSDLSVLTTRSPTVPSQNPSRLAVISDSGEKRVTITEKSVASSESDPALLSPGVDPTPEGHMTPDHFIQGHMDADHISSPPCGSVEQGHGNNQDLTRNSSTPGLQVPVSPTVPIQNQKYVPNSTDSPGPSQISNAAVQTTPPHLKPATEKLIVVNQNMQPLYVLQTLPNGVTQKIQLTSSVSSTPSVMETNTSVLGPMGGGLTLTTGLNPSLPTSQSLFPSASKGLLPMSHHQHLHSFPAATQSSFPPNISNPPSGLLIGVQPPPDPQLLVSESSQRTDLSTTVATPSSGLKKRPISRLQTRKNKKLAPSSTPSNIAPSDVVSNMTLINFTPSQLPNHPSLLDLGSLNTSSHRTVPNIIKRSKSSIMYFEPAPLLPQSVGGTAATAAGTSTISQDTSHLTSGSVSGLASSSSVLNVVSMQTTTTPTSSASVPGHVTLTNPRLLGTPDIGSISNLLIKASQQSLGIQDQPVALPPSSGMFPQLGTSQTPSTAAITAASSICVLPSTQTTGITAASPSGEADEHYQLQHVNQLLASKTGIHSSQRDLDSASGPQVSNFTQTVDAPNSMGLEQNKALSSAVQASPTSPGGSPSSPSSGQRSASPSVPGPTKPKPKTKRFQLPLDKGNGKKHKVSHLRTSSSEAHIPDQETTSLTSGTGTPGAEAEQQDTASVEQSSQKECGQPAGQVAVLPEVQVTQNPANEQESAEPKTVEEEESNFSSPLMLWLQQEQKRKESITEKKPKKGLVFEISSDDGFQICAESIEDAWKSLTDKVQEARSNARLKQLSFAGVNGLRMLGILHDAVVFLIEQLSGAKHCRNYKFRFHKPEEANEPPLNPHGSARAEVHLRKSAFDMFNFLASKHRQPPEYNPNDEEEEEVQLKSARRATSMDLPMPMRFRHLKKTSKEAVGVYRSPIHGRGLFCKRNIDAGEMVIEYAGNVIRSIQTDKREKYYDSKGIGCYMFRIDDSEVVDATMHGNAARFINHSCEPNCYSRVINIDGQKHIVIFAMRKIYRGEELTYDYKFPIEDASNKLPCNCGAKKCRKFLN

[6] = target: Catenin beta-1/Transcription factor 7 (Homo sapiens, UniProt P35222+P36402); test: Inhibition of N-terminal beta-catenin/full length myc-tagged TCF (unknown origin) trasfected in HEK293 cells measured for 48 hrs by; type: cell-based
[7] = Inhibition of full length GST-tagged Wnt (unknown origin) by luciferase assay; design: species or system Homo sapiens
Heat shock protein HSP90 = Heat shock protein HSP90 (Homo sapiens, UniProt P07900+P08238); test: Binding affinity to HSP90 (unknown origin) assessed as dissociation constant; type: protein assay

Compound | IC50 [3] [µM] | further results
CCC(C)C(NC(=O)C(C)NC(=O)[C@H](CC(C)C)NC(=O)[C@H](CCC(N)=O)NC(=O)[C@H](CCC(=O)O)NC(=O)CNC(=O)CNC(C)=O)C(N)=O (stereo partly drawn) (Ac-GGEQL[ξA][ξI]-NH2) |  | Kd [1]: 0.018 µM
C[C@H](NC(=O)OCc1ccccc1)C(=O)NCC(=O)N[C@@H](CCC(=O)O)C(=O)N[C@@H](C)C(=O)N[C@@H](CC1CCCC1)C(=O)N[C@@H](Cc1ccc(O)cc1)C(=O)N[C@@H](CCC(=O)O)C(N)=O (Cbz-AGEA[Ala(cPent)]YE-NH2) |  | Ki [2]: 0.015 µM
O=C(N[C@@H](Cn1cc(-c2ccccc2)nn1)C(=O)O)OCC1c2ccccc2-c2ccccc21 | 0.00246 | 
C[C@](O)(c1cccc(F)c1)c1cn(CSc2ccccc2)nn1 | 0.008 | 
OC[C@H]1OC(n2cc(-c3ccc(F)cc3F)nn2)[C@H](O)[C@@H](O)[C@@H]1O (stereo partly drawn) | 0.0001 | 
O=C(N[C@@H](Cn1cc(-c2ccc(F)cc2F)nn1)C(=O)O)OCC1c2ccccc2-c2ccccc21 | 0.00174 | 
Cc1cn([C@H]2C[C@H](n3cc([C@]4(O)CC[C@H]5[C@@H]6CCc7cc(O)ccc7[C@H]6CC[C@@]54C)nn3)[C@@H](CO)O2)c(=O)[nH]c1=O | 0.0124 | 
Fc1ccc(-c2cn(CSc3ccccc3)nn2)c(F)c1 | > 0.1 | 
C[C@](O)(c1cccc(F)c1)c1cn(C2O[C@H](CO)[C@@H](O)[C@H](O)[C@H]2O)nn1 (stereo partly drawn) | 0.00024 | 
COCCN1CC(=O)N(CCc2ccc(OC)cc2)CC(=O)N(c2cc(OC)cc(OC)c2)CC(=O)N(C(C)c2ccc(OC)cc2)CC(=O)N(C(C)c2ccc(OC)cc2)CC(=O)N[C@H](C)C1=O (stereo partly drawn) |  | deltaG [4]: -15.9 kcal/mol
CC[C@H](C)[C@H](NC(=O)[C@H](CC(=O)O)NC(=O)[C@H](CO)NC(=O)CCNC(=S)Nc1ccc(-c2c3ccc(=O)cc-3oc3cc(O)ccc23)c(C(=O)O)c1)C(=O)N[C@@H](CCSC)C(=O)N[C@@H](CC(=O)O)C(=O)N[C@@H](Cc1ccccc1)C(=O)N[C@H](C(=O)N[C@@H](CC(C)C)C(=O)N[C@@H](CCCCN)C(=O)N[C@@H](CC(N)=O)C(=O)N[C@H](C(=O)N1CCC[C@H]1C(N)=O)[C@@H](C)O)C(C)C ({X1-βAla}-SDIMDFVLKNTP-NH2) |  | Kd [5]: > 100 µM; Ki [5]: > 1000 µM
COc1ccc([C@H](C)N2CC(=O)N[C@H](C)C(=O)N(CCc3ccccc3Oc3ccccc3)CC(=O)N(c3cc(OC)cc(OC)c3)CC(=O)N(CCCOC(C)C)CC(=O)N([C@@H](C)c3ccc(OC)cc3)CC2=O)cc1 (cyclo([dA][N(2-(2-PhOPh)Et)Gly][Gly(N-3,5-(OMe)2-Ph)][N((CH2)3OiPr)Gly][X2][X2])) |  | IC50 [6]: 5.44 µM; IC50 [7]: 0.105 µM
CC(=O)N[C@@H]1C(n2cc([C@@](C)(O)c3cccc(F)c3)nn2)O[C@H](COCc2ccccc2)[C@H](OCc2ccccc2)[C@@H]1OCc1ccccc1 (stereo partly drawn) | 0.0224 | Kd (Heat shock protein HSP90): 21.1 µM
CC(=O)N[C@@H]1C(n2cc(-c3ccc(F)cc3F)nn2)O[C@H](COCc2ccccc2)[C@H](OCc2ccccc2)[C@@H]1OCc1ccccc1 (stereo partly drawn) | > 0.1 | 
C[C@](O)(c1ccccc1)c1cn(C[C@H](NC(=O)OCC2c3ccccc3-c3ccccc32)C(=O)O)nn1 | 0.00577 | 

— ChEMBL document CHEMBL5230108, “Computational methods-guided design of modulators targeting protein-protein interactions (PPIs)” (Eur J Med Chem, 2020)
